Reference: publication PMC6154598, “Alkamides from Anacyclus pyrethrum L. and Their in Vitro Antiprotozoal Activity” (Molecules : A Journal of Synthetic Chemistry and Natural …, 2017)
≈ marks a conversion by molar mass, not a printed value. Read-outs that look alike come from different tables or passages of the source.

How the values were obtained:
P. falciparum (NF54 IEF) [1] = system: P. falciparum (NF54 IEF); set-up: method as in PMID 24853616; conditions: previously reported data; cited from earlier work
P. falciparum (NF54 IEF) [2] = test: In vitro antiprotozoal activity against P. falciparum; assay type: cell-based, Plasmodium falciparum; conditions: for SI Pf: ratio of cytotoxic (L6) over antiprotozoal IC50 (Pf)
Protocol: (§1) Tests for antiprotozoal activities were carried out using established standard protocols at the Swiss Tropical and Public Health Institute (Swiss TPH, Basel, Switzerland). The assays and the IC50 determinations were performed essentially as described previously. The compounds used as positive controls in the various bioassays (see Table 1) were of commercial origin, with the exception of melarsoprol, which was a gift from the WHO. Their purity (generally >95%) was specified by the manufacturers. The purity of test compounds was assessed by UHPLC/MS analyses and found to be >90% in case of compounds 1–6 and >80% in case of 7. Compounds 8 + 9 represented a mixture in a ratio of approximately 1:4 (Figure S10).

[3] = system: T. cruzi (Tulahuen C4 strain; intracellular amastigotes); test: In vitro antiprotozoal activity against T. cruzi; assay type: cell-based, Trypanosoma cruzi
Protocol: as §1

[4] = Cytotoxicity against L6 rat skeletal myoblasts; assay type: cell-based
Protocol: as §1

[5] = system: T. b. rhodesiense (STIB 900 strain, bloodstream trypomastigotes); test: In vitro antiprotozoal activity against T. b. rhodesiense; assay type: cell-based, Trypanosoma brucei rhodesiense; conditions: for SI Tbr: ratio of cytotoxic (L6) over antiprotozoal IC50 (Tbr)
Protocol: as §1

[6] = system: L. donovani (MHOM-ET-67/L82 strain, axenic amastigotes); test: In vitro antiprotozoal activity against L. donovani; assay type: cell-based, Leishmania donovani; conditions: for SI Ld: ratio of cytotoxic (L6) over antiprotozoal IC50 (Ld)
Protocol: as §1

[7] = system: L6 rat skeletal myoblast cell line; test: Cytotoxicity against L6 rat skeletal myoblasts; assay type: cell-based
Protocol: as §1

[8] = Plasmodium falciparum, NF54, NF54 IEF, mean of two determinations ± deviation, read-out: IC50 Pf
[9] = Plasmodium falciparum, NF54, NF54 IEF, value in μM of pure compound, read-out: IC50 Pf (in brackets)
[10] = Trypanosoma cruzi, Tulahuen C4 strain, intracellular amastigotes, mean of two determinations ± deviation, read-out: IC50 Tc
[11] = Trypanosoma cruzi, Tulahuen C4 strain, intracellular amastigotes, value in μM of pure compound, read-out: IC50 Tc (in brackets)
[12] = rat, IC50 Cytotox (in brackets)
[13] = Trypanosoma brucei, STIB 900 strain, bloodstream trypomastigotes, mean of two determinations ± deviation, read-out: IC50 Tbr
[14] = Trypanosoma brucei, STIB 900 strain, bloodstream trypomastigotes, value in μM of pure compound, read-out: IC50 Tbr (in brackets)
[15] = Leishmania donovani, MHOM-ET-67/L82 strain, axenic amastigotes, mean of two determinations ± deviation, read-out: IC50 Ld
[16] = Leishmania donovani, MHOM-ET-67/L82 strain, axenic amastigotes, value in μM of pure compound, read-out: IC50 Ld (in brackets)
[17] = Plasmodium falciparum, NF54, read-out: IC50 Pf
[18] = Plasmodium falciparum, NF54, read-out: IC50 Pf (in brackets)
[19] = L6 rat skeletal myoblast cell line, mean of two determinations ± deviation, read-out: IC50 Cytotox
[20] = L6 rat skeletal myoblast cell line, value in μM of pure compound, read-out: IC50 Cytotox (in brackets)
[21] = NF54 IEF, mean of two determinations ± deviation

Molecule	IC50 (P. falciparum (NF54 IEF) [2]; [8]) [µg/mL]	IC50 (P. falciparum (NF54 IEF) [2]; [9]) [µM]	SI Pf (P. falciparum (NF54 IEF) [2])	IC50 [3, 10] [µg/mL]	IC50 [3, 11] [µM]	IC50 ([4]; rat, IC50 Cytotox) [µg/mL]	IC50 [4, 12] [µM]	IC50 [5, 13] [µg/mL]	IC50 [5, 14] [µM]	SI Tbr [5]	IC50 [6, 15] [µg/mL]	IC50 [6, 16] [µM]	SI Ld [6]	other results
CCCCC/C=C/C=C/C(=O)NCC(C)C [Compound 2, deca-2E,4E-dienoic acid isobutylamide]														IC50 Pf (P. falciparum (NF54 IEF) [1]): 3.3 µg/mL (≈ 14.8 µM)
C=CCCC/C=C/C=C/C(=O)NCC(C)C [Compound 3, deca-2E,4E,9-trienoic acid isobutylamide]	7.13 ± 0.63	32.2	2.3	39.9	181	16.7 ± 0.1	75.3	2.91 ± 0.21	13.2	5.7	4.77 ± 1.02	21.6	3.5	
CCCCC/C=C/C=C/C(=O)NCCc1ccccc1 [Compound 4, deca-2E,4E-dienoic acid 2-phenylethylamide]					18.5			4.03	14.9	2.0			2.7	IC50 (P. falciparum (NF54 IEF) [2]; [17]): > 5 µg/mL; IC50 (P. falciparum (NF54 IEF) [2]; [18]): > 18 µM; IC50 ([3]; Trypanosoma cruzi, TULAHUEN, read-out: IC50 Tc): 5.02 ± 0.05 µg/mL; IC50 [4, 19]: 7.88 µg/mL; IC50 [4, 20]: 29.1 µM; IC50 ([6]; Leishmania donovani, read-out: IC50 Ld): 2.97 ± 0.54 µg/mL; IC50 ([6]; Leishmania donovani, read-out: IC50 Ld (in brackets)): 11 µM
C/C=C\C#CC#CCC/C=C/C=C/C(=O)NCC(C)C [Compound 6, tetradeca-2E,4E,12Z-trien-8,10-diynoic acid isobutylamide]	7.19 ± 0.49	26.7	2.7	38.8 ± 2.1	144	19.4 ± 1.7	72.2	6.37 ± 0.94	23.7	3.1	5.04 ± 1.17	18.7	3.9	
CCCCCCC/C=C/C=C/C(=O)NCCc1ccc(O)cc1 [Compound 7, Dodeca-2E,4E-dienoic acid 4-hydroxy-2-phenylethylamide]	3.2	10.1	<0.1	1.88		0.2	0.69	2.26 ± 0.18	7.17	0.1	4.19 ± 1.64	13.3	<0.1	IC50 Pf (P. falciparum (NF54 IEF) [2]; [21]): 3.18 ± 0.20 µg/mL (≈ 10.1 µM); IC50 ([3]; Trypanosoma cruzi, TULAHUEN, read-out: IC50 Tc (in brackets)): 5.97 µM; IC50 Cytotox ([7]; rat): 0.19 ± 0.05 µg/mL (≈ 0.602 µM)
CCN(CC)CCCC(C)Nc1ccnc2cc(Cl)ccc12 (stereo not drawn) [chloroquine, reference compound]														IC50 (P. falciparum (NF54 IEF) [2]; [17]): 0.08 ± 0.003 µg/mL; IC50 (P. falciparum (NF54 IEF) [2]; [18]): 0.25 µM
Nc1nc(N)nc(Nc2ccc([As]3SCC(CO)S3)cc2)n1 (stereo not drawn) [melarsoprol, reference compound]														IC50 ([5]; Trypanosoma brucei, read-out: IC50 Tbr): 0.003 ± 0.001 µg/mL; IC50 ([5]; Trypanosoma brucei, read-out: IC50 Tbr (in brackets)): 0.008 µM
CCCCCCCCCCCCCCCCOP(=O)([O-])OCC[N+](C)(C)C [miltefosine, reference compound]											0.127 ± 0.052	0.312		
COc1cc([C@@H]2c3cc4c(cc3[C@H](O)[C@H]3COC(=O)[C@H]23)OCO4)cc(OC)c1OC [podophyllotoxin, reference compound]														IC50 [4, 19]: 0.008 ± 0.001 µg/mL; IC50 [4, 20]: 0.019 µM
undeca-2E,4E-dien-8,10-diynoic acid isopentylamide [Compound 5]			2.7							6.2			7.0	IC50 Pf (P. falciparum (NF54 IEF) [2]; [21]): 10.3 ± 1.4 µg/mL; IC50 (P. falciparum (NF54 IEF) [2]; NF54 IEF, value in μM of pure compound, read-out: IC50 Pf (in brackets)): 42.5 µM; IC50 Tc ([3]; Tulahuen C4 strain, intracellular amastigotes, mean of two determinations ± deviation): 16.3 ± 0.3 µg/mL; IC50 ([3]; Tulahuen C4 strain, intracellular amastigotes, value in μM of pure compound, read-out: IC50 Tc (in brackets)): 66.9 µM; IC50 [7]: 116 µM; IC50 Cytotox [7]: 28.2 ± 6.9 µg/mL; IC50 Tbr ([5]; STIB 900 strain, bloodstream trypomastigotes, mean of two determinations ± deviation): 4.59 ± 0.39 µg/mL; IC50 ([5]; STIB 900 strain, bloodstream trypomastigotes, value in μM of pure compound, read-out: IC50 Tbr (in brackets)): 18.9 µM; IC50 Ld ([6]; MHOM-ET-67/L82 strain, axenic amastigotes, mean of two determinations ± deviation): 4.04 ± 0.71 µg/mL; IC50 ([6]; MHOM-ET-67/L82 strain, axenic amastigotes, value in μM of pure compound, read-out: IC50 Ld (in brackets)): 16.6 µM
